Source: patent publication US12157717B2, “Compounds for the treatment of bovine or swine respiratory disease” (Intervet Inc., priority 2018, dated 2024)
Values after ≈ are worked out from the molar mass of the structure shown.

What was measured:
Assay type in all cases: cell-based
[1] = system: Mannheimia haemolytica MH 13093 (XB0472-6014.1); assay: MIC, broth-microdilution (CLSI), strain MH 13093; details: Mannheimia haemolytica XB0472-6014.1, BRD field isolate
Method: (§1) The Minimum inhibitory concentrations (MIC) of compounds according to the invention for a number of veterinary bacterial pathogens were determined by the broth-microdilution method according to CLSI document VETO 1-A4.
(§2) Microdilution trays containing a doubling dilution series of the test compound were used for the tests. The MIC results were interpreted according to the CLSI documents VET01-S3. The lowest concentration of compound at which no visible growth (i.e. no turbidity) detected by the unaided eye was recorded as the MIC.

[2] = system: Mannheimia haemolytica MH 10720 (154); assay: MIC, broth-microdilution (CLSI), strain MH 10720; details: Mannheimia haemolytica 154, BRD field isolate
Method: as §1, §2

[3] = system: Pasteurella multocida PM 12080 (IV102277-0093); assay: MIC, broth-microdilution (CLSI), strain PM 12080; details: Pasteurella multocida IV102277-0093, BRD field isolate
Method: as §1, §2

[4] = system: Mannheimia haemolytica MH 12587 (1071), macrolide-resistance: erm+, E+; assay: MIC, broth-microdilution (CLSI), strain MH 12587; details: Mannheimia haemolytica 1071, BRD field isolate
Method: as §1, §2

[5] = system: Mannheimia haemolytica MH 13065 (XB0446-6003.9); assay: MIC, broth-microdilution (CLSI), strain MH 13065; details: Mannheimia haemolytica XB0446-6003.9, BRD field isolate
Method: as §1, §2

[6] = system: Pasteurella multocida PM 6391 (ATCC 43137); assay: MIC, broth-microdilution (CLSI), strain PM 6391; details: Pasteurella multocida ATCC 43137, reference strain
Method: as §1, §2

[7] = system: Mannheimia haemolytica MH 6374 (ATCC 33396); assay: MIC, broth-microdilution (CLSI), strain MH 6374; details: Mannheimia haemolytica ATCC 33396, reference strain
Method: as §1, §2

[8] = system: Mannheimia haemolytica MH 6357 (M7/2); assay: MIC, broth-microdilution (CLSI), strain MH 6357; details: Mannheimia haemolytica M7/2, reference strain (cattle infection strain)
Method: as §1, §2

[9] = system: Pasteurella multocida PM 6267 (P 2225 (L386)); assay: MIC, broth-microdilution (CLSI), strain PM 6267; details: Pasteurella multocida P 2225 (L386), reference strain (mouse infection strain)
Method: as §1, §2

[10] = system: Pasteurella multocida PM 10775 (080130003051); assay: MIC, broth-microdilution (CLSI), strain PM 10775; details: Pasteurella multocida 080130003051, BRD field isolate
Method: as §1, §2

| Structure (SMILES) | MIC MH 13093 [1] | MIC MH 10720 [2] | MIC PM 12080 [3] | MIC MH 12587 [4] | MIC MH 13065 [5] | MIC PM 6391 [6] | MIC MH 6374 [7] | MIC MH 6357 [8] | MIC PM 6267 [9] | MIC PM 10775 [10] |
| --- | --- | --- | --- | --- | --- | --- | --- | --- | --- | --- |
| CNC(=O)C(NC(=O)c1ccc(C#Cc2ccc(CN3CCCC3)cc2)cc1)C(=O)NO (stereo not shown) [Compound 7] | 6.3 µM (≈ 2.74 µg/mL) | 1.6 µM (≈ 0.695 µg/mL) | 0.8 µM (≈ 0.348 µg/mL) | 12.5 µM (≈ 5.43 µg/mL) | 12.5 µM (≈ 5.43 µg/mL) | 0.4 µM (≈ 0.174 µg/mL) | 12.5 µM (≈ 5.43 µg/mL) | 3.1 µM (≈ 1.35 µg/mL) | ≤0.1 µM | 0.2 µM (≈ 0.0869 µg/mL) |
| CNC(=O)C(NC(=O)c1ccc(C#Cc2ccc(CNCCOC)cc2)cc1)C(=O)NO (stereo not shown) [Compound 3] | 1.6 µM (≈ 0.702 µg/mL) | 0.8 µM (≈ 0.351 µg/mL) | 0.4 µM (≈ 0.175 µg/mL) | 6.3 µM (≈ 2.76 µg/mL) | 1.6 µM (≈ 0.702 µg/mL) | 0.4 µM (≈ 0.175 µg/mL) | 3.1 µM (≈ 1.36 µg/mL) | 1.6 µM (≈ 0.702 µg/mL) | 0.2 µM (≈ 0.0877 µg/mL) | ≤0.1 µM |
| CNC(=O)C(NC(=O)c1ccc(C#Cc2ccc(CNCc3cccs3)cc2)cc1)C(=O)NO (stereo not shown) [Compound 15] | 0.2 µM (≈ 0.0953 µg/mL) | ≤0.1 µM | ≤0.1 µM | 0.8 µM (≈ 0.381 µg/mL) | 0.2 µM (≈ 0.0953 µg/mL) | ≤0.1 µM | 0.2 µM (≈ 0.0953 µg/mL) | 0.2 µM (≈ 0.0953 µg/mL) | ≤0.1 µM | ≤0.1 µM |
| CNC(=O)C(NC(=O)c1ccc(C#Cc2ccc(CNCc3nccs3)cc2)cc1)C(=O)NO (stereo not shown) [Compound 18] | 0.4 µM (≈ 0.191 µg/mL) | 0.2 µM (≈ 0.0955 µg/mL) | ≤0.1 µM | 0.8 µM (≈ 0.382 µg/mL) | 0.4 µM (≈ 0.191 µg/mL) | ≤0.1 µM | 0.4 µM (≈ 0.191 µg/mL) | 0.4 µM (≈ 0.191 µg/mL) | ≤0.1 µM | ≤0.1 µM |
| CNC(=O)C(NC(=O)c1ccc(C#Cc2ccc(CNC3CCCC3)cc2)cc1)C(=O)NO (stereo not shown) [Compound 9] | 12.5 µM (≈ 5.61 µg/mL) | 3.1 µM (≈ 1.39 µg/mL) | 0.4 µM (≈ 0.179 µg/mL) | 25 µM (≈ 11.2 µg/mL) | 12.5 µM (≈ 5.61 µg/mL) | 0.4 µM (≈ 0.179 µg/mL) | 25 µM (≈ 11.2 µg/mL) | 6.3 µM (≈ 2.83 µg/mL) | 0.4 µM (≈ 0.179 µg/mL) | 0.2 µM (≈ 0.0897 µg/mL) |
| CNC(=O)C(C(=O)NO)N(C)C(=O)c1ccc(C#Cc2ccc(CNCc3ccccn3)cc2)cc1 (stereo not shown) [Compound 28] | 6.3 µM (≈ 3.06 µg/mL) | 1.6 µM (≈ 0.777 µg/mL) | 1.6 µM (≈ 0.777 µg/mL) | 12.5 µM (≈ 6.07 µg/mL) | 3.1 µM (≈ 1.51 µg/mL) | 3.1 µM (≈ 1.51 µg/mL) | 3.1 µM (≈ 1.51 µg/mL) | 6.3 µM (≈ 3.06 µg/mL) | ≤0.1 µM | 0.2 µM (≈ 0.0971 µg/mL) |
| CNC(=O)C(NC(=O)c1ccc(C#Cc2ccc(CNCc3ccnc(Cl)c3)cc2)cc1)C(=O)NO (stereo not shown) [Compound 12] | 0.4 µM (≈ 0.202 µg/mL) | ≤0.1 µM | ≤0.1 µM | 0.8 µM (≈ 0.405 µg/mL) | 0.4 µM (≈ 0.202 µg/mL) | ≤0.1 µM | 0.4 µM (≈ 0.202 µg/mL) | 0.2 µM (≈ 0.101 µg/mL) | ≤0.1 µM | ≤0.1 µM |
| CNC(=O)C(NC(=O)c1ccc(C#Cc2ccc(CNCc3ccc(C)cc3)cc2)cc1)C(=O)NO (stereo not shown) [Compound 16] | 1.6 µM (≈ 0.775 µg/mL) | 0.2 µM (≈ 0.0969 µg/mL) | 0.2 µM (≈ 0.0969 µg/mL) | 1.6 µM (≈ 0.775 µg/mL) | 0.8 µM (≈ 0.388 µg/mL) | 0.4 µM (≈ 0.194 µg/mL) | 0.8 µM (≈ 0.388 µg/mL) | 0.4 µM (≈ 0.194 µg/mL) | ≤0.1 µM | ≤0.1 µM |
| CNC(=O)C(NC(=O)c1ccc(C#Cc2ccc(CNC3CCC3)cc2)cc1)C(=O)NO (stereo not shown) [Compound 8] | 6.3 µM (≈ 2.74 µg/mL) | 1.6 µM (≈ 0.695 µg/mL) | 0.4 µM (≈ 0.174 µg/mL) | 12.5 µM (≈ 5.43 µg/mL) | 6.3 µM (≈ 2.74 µg/mL) | 0.4 µM (≈ 0.174 µg/mL) | 6.3 µM (≈ 2.74 µg/mL) | 3.1 µM (≈ 1.35 µg/mL) | ≤0.1 µM | ≤0.1 µM |
| CNC(=O)C(C(=O)NO)N(C)C(=O)c1ccc(C#Cc2ccc(CNCc3ccc(OC)cc3)cc2)cc1 (stereo not shown) [Compound 24] | 6.3 µM (≈ 3.24 µg/mL) | 0.8 µM (≈ 0.412 µg/mL) | 1.6 µM (≈ 0.823 µg/mL) | 12.5 µM (≈ 6.43 µg/mL) | 3.1 µM (≈ 1.6 µg/mL) | 1.6 µM (≈ 0.823 µg/mL) | 1.6 µM (≈ 0.823 µg/mL) | 1.6 µM (≈ 0.823 µg/mL) | 0.4 µM (≈ 0.206 µg/mL) | ≤0.1 µM |
